Experimental data from patent US12570612B2, “Substituted nitrogen heterocyclic compound and anesthetic effect thereof” (priority 2019, dated 2026).
Where “and” joins values, the source holds several entries; their conditions need not be identical. Equal values may be shown once. Entries after “also recorded” stand apart in the source; their conditions may differ. Read-outs that look alike come from different tables or passages of the source.

Key:
Sprague-Dawley rats [1] = experiment: animal or person; format: in vivo; conditions: rats; for ED50: LORR, up and down method, tail vein, class symbols
Description: Evaluating indicator: The end point of anesthesia: LORR was used as the end point of anesthesia; General anesthesia effect: the disappearance of forepaw righting reflex in rats lasting for 30 seconds is taken as the index of general anesthesia effect; Anesthesia recovery index: the recovery of rat forepaw righting reflex was used as the index of anesthesia recovery.

Sprague-Dawley rats [2] = experiment: Pharmacological effect and adverse reactions under the equivalent dose (2ED50), Group C compounds; format: in vivo; conditions: for Righting reflex duration / Sedation duration / Onset time: 2ED50, tail vein, rats, n=8; for Adverse reaction: Convulsions / Adverse reaction: Cough, broken-winded / Adverse reaction: Euphoria / Adverse reaction: Red urine / Adverse reaction: Slower breathing, Tetany convulsion / Adverse reaction: Systemic stiffness, Convulsions, Opisthotonus / Adverse reaction: Tongue stretching / Adverse reaction: Tremor / Adverse reaction: the four limbs rigidity: equivalent dose (2ED50), number of rats of n = 8
Description: Evaluation index: onset time: from the completion of drug injection to the disappearance of forepaw righting reflex in rats; Duration of anesthesia: the time from the disappearance of rat forepaw righting reflex to the recovery of rat forepaw righting reflex; Recovery time of anesthesia: the time from the […] to complete recovery;

Sprague-Dawley rats [3] = format: in vivo; conditions: tail vein
Sprague-Dawley rats [4] = experiment: animal or person
Method: Adult male Sprague-Dawley rats (250-300 g) were selected for the experiment. […] The anesthesia effects of the compounds were assessed in rats using a LORR assay and a period >30 s was considered as an indicator of general anesthesia.

Sprague-Dawley rats [5] = experiment: Pharmacological characteristics at equivalent doses (2ED50), Group A compounds; format: in vivo; conditions: 2ED50, tail vein
H295R cell line = experiment: Adrenocortical function in vitro test: secretion of cortisol and corticosterone, Group A compounds; format: cell-based; conditions: H295 cells; for EC50: Homo sapiens, 0.1-10000 nM, HPLC-MS/MS
Sprague-Dawley rats [6] = tested on: Sprague-Dawley rats
Method: Adult male Sprague-Dawley rats with body weight ranging from 250 to 300 gm were selected for continuous infusion test. […] Time to recovery of righting reflex from stopping infusion, and time to fully awake from stopping infusion were recorded.

[7] = Rattus norvegicus, read-out: ED50

Compound | ED50 (Sprague-Dawley rats [1]; [7]) [mg/kg] | Approximate therapeutic index (Sprague-Dawley rats [1]) | Righting reflex duration (Sprague-Dawley rats [2]) [min] | Sedation duration (Sprague-Dawley rats [2]) [min] | Onset time (Sprague-Dawley rats [2]; unit s) [s] | Adverse reaction: Convulsions (Sprague-Dawley rats [2]) | Adverse reaction: Cough, broken-winded (Sprague-Dawley rats [2]) | Adverse reaction: Euphoria (Sprague-Dawley rats [2]) | Adverse reaction: Red urine (Sprague-Dawley rats [2]) | Adverse reaction: Slower breathing, Tetany convulsion (Sprague-Dawley rats [2]) | Adverse reaction: Systemic stiffness, Convulsions, Opisthotonus (Sprague-Dawley rats [2]) | Adverse reaction: Tongue stretching (Sprague-Dawley rats [2]) | Adverse reaction: Tremor (Sprague-Dawley rats [2]) | Adverse reaction: the four limbs rigidity (Sprague-Dawley rats [2]) | Minimal lethal dose (Sprague-Dawley rats [3]) [mg/kg] | other results
C[C@H](c1ccccc1)n1cncc1C(=O)COCC1CC1 [Compound C46] | 2 to 10 | >2.4 | 1.82 ± 0.64 | 5.63 ± 1.52 | <30 | 0 | 0 | 0 | 8 | 0 | 0 | 1 | 1 | 0 | >11.8 | –
CCSCC(=O)c1ccnn1[C@H](C)c1ccccc1 [Compound C9, (R)-2-(ethylthio)-1-(1-(1-phenylethyl)-1H-pyrazol-5-yl)ethan-1-one] | 2 to 10 | >2.1 | 1.56 ± 0.89 | 6.62 ± 0.72 | <30 | 0 | 0 | 0 | 8 | 0 | 0 | 0 | 0 | 0 | >10.2 | –
COCC(=O)c1c(F)ncn1[C@H](C)c1ccccc1 [Compound C71] | – | >8.0 | 2.00 ± 0.81 | 5.11 ± 1.64 | <30 | 2 | 0 | 0 | 8 | 0 | 0 | 0 | 1 | 1 | >6.6 | ED50 (Sprague-Dawley rats [1]): ++ (++ means that the measured ED50 is in the range of 0.50-1.00 mg/kg (excluding 0.50 mg/kg, including 1.00 mg/kg))
CC(=O)COCC(=O)c1cc(F)nn1[C@H](C)c1ccccc1 [Compound C16] | 2 to 10 | – | 2.26 ± 0.81 | 4.89 ± 0.98 | <30 | 0 | 0 | 0 | 8 | 0 | 0 | 1 | 2 | 4 | >17.0 | –
CCC(CC)OCC(=O)c1cncn1[C@H](C)c1ccccc1 [Compound C36] | 2 to 10 | >3.0 | 4.02 ± 1.09 | 15.57 ± 4.94 | <30 | 0 | 0 | 0 | 8 | 0 | 0 | 0 | 0 | 3 | >15.2 | –
C[C@H](c1ccccc1)n1cncc1C(=O)COC(C)(C)C [Compound C45] | – | >2.2 | 3.00 ± 1.02 | 7.74 ± 0.85 | <30 | 0 | 0 | 0 | 8 | 0 | 7 | 0 | 0 | 1 | >10.8 | –
C[C@H](c1ccccc1)n1cnc(F)c1C(=O)COCC1CC1 [Compound C76] | – | >21.9 | 1.72 ± 0.61 | 4.32 ± 0.96 | <30 | 0 | 0 | 0 | 8 | 0 | 0 | 0 | 1 | 1 | >15.6 | ED50 (Sprague-Dawley rats [1]): ++ (++ means that the measured ED50 is in the range of 0.50-1.00 mg/kg (excluding 0.50 mg/kg, including 1.00 mg/kg))
C#CCOCC(=O)c1cncn1[C@H](C)c1ccccc1 [Compound C35] | 0.5 to 1 | >12.9 | 2.26 ± 0.81 | 4.89 ± 0.98 | <30 | 0 | 0 | 0 | 8 | 0 | 7 | 1 | 0 | 0 | >10.3 | –
CC(=O)COCC(=O)c1cncn1[C@H](C)c1ccccc1 [Compound C51] | 1 to 2 | >8.3 | 2.89 ± 0.68 | 4.62 ± 1.02 | <30 | 0 | 0 | 0 | 8 | 0 | 0 | 0 | 2 | 0 | >12.5 | –
C[C@H](c1ccccc1)n1cnc(F)c1C(=O)COCC1CCC1 [Compound C70] | – | >18.2 | 1.35 ± 0.61 | 5.30 ± 1.14 | <30 | 0 | 0 | 4 | 8 | 0 | 0 | 0 | 0 | 6 | >6.4 | ED50 (Sprague-Dawley rats [1]): + (+ indicates that the measured ED50 is in the range of 0.04-0.50 mg/kg (including 0.04 and 0.50 mg/kg))
CCOCC(=O)c1c(F)ncn1[C@H](C)c1ccccc1 [Compound C72] | 0.04 to 0.5 | >27.7 | 1.29 ± 0.64 | 5.70 ± 1.51 | – | 0 | 0 | 0 | 8 | 0 | 0 | 0 | 0 | 0 | >8.9 | Onset time (Sprague-Dawley rats [2]; unit min): <60 s
C=C=CC1(OC(=O)c2ccnn2[C@H](C)c2ccccc2)COC1 [Compound A24] | – | – | – | – | – | – | – | – | – | – | – | – | – | – | – | ED50 (Sprague-Dawley rats [4]; Rattus norvegicus): 0.04 to 0.5 mg/kg; Approximate therapeutic index (Sprague-Dawley rats [4]; rats): >31; Minimal lethal dose (Sprague-Dawley rats [4]; rats): >6 mg/kg; Onset time (Sprague-Dawley rats [5]): 0.47 ± 0.09 min; Righting reflex duration (Sprague-Dawley rats [5]): 1.47 ± 0.63 min; Types and incidence of adverse reactions (Sprague-Dawley rats [5]; (animals affected/animals)): Red and urine(8/8), Convulsions(5/ and 8), Hindlimb rigidity (2/8); Corticosterone as an indicator to determine the presence of inhibition (H295R cell line): 0; Cortisol as an indicator to determine the presence of inhibition (H295R cell line): 0; EC50 (H295R cell line; read-out: EC50 (Corticosterone)): > 1000 nM; EC50 (H295R cell line; read-out: EC50 (Cortisol)): > 1000 nM; Recovery time after stopping infusion (Sprague-Dawley rats [6]; LORR maintained for 1 hour, 2 times the MIR): 8 to 12 min; Onset time (Sprague-Dawley rats [6]; continuous infusion, 2 times the MIR): 4 to 5 min; Types and incidence of adverse reactions (Sprague-Dawley rats [6]; continuous infusion, (animals affected/animals)): Tremor(2/6), Tongue; also recorded: stretching(4/6)
